Holding throughout (assay): NCI-60 cell line screen, 48 h
In experiment [1] the test system is CAKI-1 renal.
The test system of experiment [2] is HT29 colon.
For experiment [3], the system named is NCI/ADR-RES ovarian.
Experiment [4] has as its system M14 melanoma.
Experiment [5] deals with HOP-62 NSCLC.
Experiment [6] has as its system RXF 393 renal.
The subject of experiment [7] is DU-145 prostate.
The subject of experiment [8] is COLO 205 colon.
The test system of experiment [9] is SR leukemia.
The test system of experiment [10] is NCI-H23 lung.
The test system of experiment [11] is NCI-H460 lung.
For experiment [12], the system named is SF-295 CNS.
In experiment [13] the test system is CCRF-CEM leukemia.
The subject of experiment [14] is A498 renal.

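These data come from cells grown in 96-well plates and exposed to compound for 48 hours at five concentrations. TGI marks complete inhibition of growth.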 *1 amine or outer side, *2 acyl side, *3 side chain or, on linkers, in order; H or OH if unused. Where a SMILES comes first, the peptide text is derived from it. Bridges are numbered along the chain shown (N, C = ends). [ ]: non-standard residue; d: D form. X59 = COc1c(N[*:1])cccc1C(=O)O[C@H](C(=O)[C@H](C)C(=O)[*:2])C(C)C; X58 = CC(C)C[C@H](C(=O)[*:2])C(C)C(=O)C1CCCN1[*:1]; NMeY = CN[C@@H](Cc1ccc(O)cc1)C(=O)O; Lac = C[C@H](O)C(=O)O

As to `COc1ccc(C[C@H]2C(=O)O[C@H](C)[C@H](NC(=O)[C@@H](CC(C)C)C(C)C(=O)C3CCCN3C(=O)[C@H](C)O)C(=O)Nc3cccc(c3OC)C(=O)O[C@@H](C(C)C)C(=O)[C@H](C)C(=O)N[C@@H](CC(C)C)C(=O)N3CCC[C@H]3C(=O)N2C)cc1` (stereo partly drawn) (H-[Lac][X58]T[X59]LP[NMeY](Me); ester 3-C), the TGI in experiment [1], in experiment [2], in experiment [3], in [4], in experiment [5] and in experiment [6] was greater than 12.5 µM each time. For the same compound, the TGI in experiment [7], in experiment [8], in experiment [9], in [10], in experiment [11] and in [12] was greater than 12.5 µM each time.
With `CC(=O)c1sc2n(C)c(=O)c3ccccc3[n+]2c1C`, the TGI in experiment [1], in experiment [2], in experiment [3], in [13], in experiment [4] and in experiment [5] was greater than 100 µM in each case. The TGI in experiment [6], in experiment [7], in experiment [8], in experiment [9], in [10] and in [11] was greater than 100 µM each time. This compound had a TGI in experiment [12] greater than 100 µM.
With `O=C1/C(=C/c2ccc(OC(=O)c3ccc(Cl)cc3)cc2)CCC/C1=C\c1ccc(OC(=O)c2ccc(Cl)cc2)cc1`, the TGI in experiment [1], in experiment [2], in experiment [3], in [13], in [4] and in [5] was greater than 100 µM each time. Further, the TGI in experiment [7], in experiment [8], in [9], in experiment [10] and in experiment [11] was greater than 100 µM each time.
With `CC(C)=CC[C@H]1C[C@@]2(CC=C(C)C)C(=O)/C(=C(/O)c3ccccc3)C(=O)[C@](CC=C(C)C)(C2=O)C1(C)C`, the TGI amounted to 28.9 µM in experiment [1]; 23.4 µM in [2]; 42.2 µM in experiment [3]; 25.2 µM in experiment [4]; 29.3 µM in experiment [5]; 24.1 µM in experiment [6]. In addition, the TGI in experiment [9] was greater than 100 µM; in experiment [10], 73.9 µM; in [11], 11.5 µM; in experiment [12] it was 17.8 µM; in experiment [14], 26.3 µM.
With `COc1ccc2cc(/C=N\NC(=O)Nc3ccc([N+](=O)[O-])cc3)ccc2c1`, the TGI in experiment [1] is 18.5 µM; in [2], 16.1 µM; in [3], 20.1 µM; in experiment [4], greater than 71.4 µM; in experiment [5] it was 41.6 µM; in [6] it was 16.6 µM. The TGI in experiment [7] is 14 µM; in experiment [8], 17.9 µM; in experiment [10] it was 16.6 µM; in experiment [11] it was 18.3 µM; in experiment [12], 20.7 µM.
On to `CC(=O)OC1CC2C(C)(C)OC(=O)CC(OC(C)=O)[C@]2(C)C2CCC3(C)C(=CCC3c3ccoc3)[C@]12C` (stereo partly drawn), for which the TGI was greater than 100 µM in experiment [1]; 39.3 µM in experiment [2]; 87.3 µM in experiment [13]; 46.5 µM in experiment [4]; 96.6 µM in [5]; greater than 100 µM in experiment [6]. The TGI in experiment [8] is 29.8 µM; in experiment [9], 50.8 µM; in experiment [10], greater than 100 µM; in experiment [11], greater than 100 µM; in experiment [12] it was 98.3 µM; in experiment [14], greater than 100 µM.
For the compound `CC(=O)c1c2c(cc3c1CC1(C3)Cc3cc4c(c(C(C)=O)c3C1)CCCC4)CCCC2`, the TGI in experiment [2] is greater than 100 µM; in experiment [3] it was greater than 100 µM; in experiment [13], 44 µM; in [4] it was greater than 100 µM; in experiment [5] it was greater than 100 µM; in [6], greater than 100 µM. In addition, the TGI in experiment [8] is greater than 100 µM; in experiment [9], 53.2 µM; in [10], greater than 100 µM; in experiment [12] it was greater than 100 µM; in experiment [14] it was greater than 100 µM.
Take `O=c1[nH]cc(COCC(O)CO)c(=O)[nH]1` (stereo not drawn): the TGI in experiment [1], in [2], in experiment [13], in experiment [4], in [5] and in experiment [6] was greater than 100 µM throughout. In addition, the TGI in [8], in [10], in experiment [11], in [12] and in experiment [14] was greater than 100 µM in each case.
With `Brc1ccc(N=Nc2ccc3ccccc3n2)cc1`, the TGI was 47 µM in experiment [1]; greater than 100 µM in experiment [2]; greater than 100 µM in experiment [3]; greater than 100 µM in experiment [13]; greater than 100 µM in [4]; greater than 100 µM in [6]. Further, the TGI in experiment [7] is greater than 100 µM; in [8], greater than 100 µM; in experiment [10], greater than 100 µM; in [11], 26.4 µM; in [12], greater than 100 µM.
Take `Cc1cc(C)nc(NS(=O)(=O)c2ccc(Nc3nnc(/C=C/c4c(O)ccc5ccccc45)c(=O)n3N)cc2)n1`: the TGI in experiment [1] was 59.8 µM; in experiment [2], greater than 100 µM; in experiment [3] it was 58.3 µM; in experiment [13] it was greater than 100 µM; in [4], 58.5 µM; in experiment [5], greater than 100 µM. The TGI is 55.3 µM in [6]; greater than 100 µM in experiment [7]; 55.6 µM in [9]; 57.7 µM in experiment [10]; greater than 100 µM in [12].
As for `Cc1ccc(S(=O)(=O)NC(=O)NCC(N)=O)cc1`, the TGI in experiment [2], in [3], in experiment [13], in [4], in experiment [5] and in experiment [6] was greater than 100 µM each time. The TGI in experiment [7], in [8], in experiment [10], in experiment [11] and in [12] was greater than 100 µM throughout.
For `O=C1COc2cc3c(cc2N1)SCCC(=O)N3`, the TGI in [1], in experiment [2], in [13], in [4], in experiment [5] and in experiment [8] was greater than 100 µM throughout. The TGI in [9], in [10], in [12] and in experiment [14] was greater than 100 µM each time.
`CCN(CC)c1ccc2cc(-c3csc(C)n3)c(=O)oc2c1`: the TGI was greater than 100 µM in experiment [1]; greater than 100 µM in [2]; greater than 100 µM in experiment [13]; greater than 100 µM in [4]; 94.6 µM in experiment [5]; greater than 100 µM in experiment [6]. In addition, the TGI in experiment [7], in [8], in experiment [9], in experiment [11] and in [12] was greater than 100 µM throughout.
As to `COC(=O)C1=C(C(=O)OC)C(OO)(c2ccccc2)OC1=O` (stereo not drawn), the TGI in experiment [1], in [2], in [3], in experiment [13], in experiment [4] and in [6] was greater than 100 µM in each case. In addition, the TGI in experiment [7], in experiment [8], in [9], in experiment [10], in experiment [11] and in [12] was greater than 100 µM each time.
Turning to `CC[C@H]1C=CCC[C@@]2(C[C@@H]3CC[C@H]4[C@@H](C(=O)OCCCCCCCCCCCCCCCC(=O)N(CCCNC(C)=O)C[C@H](CCNC(C)=O)OC(C)=O)[C@@]5(CCC[C@@H](C)O5)NC(=[N+]34)N2)O1`, the TGI in [1] is 5.08 µM; in experiment [2], 2.7 µM; in experiment [4], 3.24 µM; in experiment [5], 3.42 µM; in experiment [6], 3.44 µM; in [7], 2.9 µM. Besides, the TGI in experiment [8] was determined as 2.67 µM; in experiment [9] it was 3.35 µM; in experiment [10], 3.19 µM; in experiment [11], 3.25 µM; in experiment [12], 3.32 µM; in experiment [14], 3.27 µM.
Turning to `CCNC1=C(NC(=O)c2ccc(OC)cc2)C(=O)c2ccccc2C1=O`, the TGI in [2] was 76.9 µM; in experiment [3], 99.5 µM; in experiment [13] it was greater than 100 µM; in experiment [4], 55.9 µM; in [5] it was greater than 100 µM; in experiment [6] it was 88.2 µM. Also, the TGI in [7], in experiment [8], in experiment [9], in [10], in experiment [11] and in experiment [12] was greater than 100 µM throughout.
Turning to `CC1(C)CC2C(/C1=N/O)C1(C)CCCC2(C)C1O` (stereo not drawn), the TGI in experiment [1], in experiment [2], in experiment [3], in [13], in experiment [4] and in [5] was greater than 100 µM each time. For the same compound, the TGI in experiment [7], in experiment [8], in experiment [9], in experiment [10], in experiment [11] and in experiment [12] was greater than 100 µM each time.
With `CN(C(=O)c1cc2c(s1)sc1c(=O)n(C)c3ccccc3c12)c1ccccc1`, the TGI was 40.8 µM in [1]; greater than 100 µM in experiment [2]; 77.1 µM in experiment [3]; greater than 100 µM in experiment [13]; greater than 100 µM in experiment [4]; greater than 100 µM in [6]. Further, the TGI in experiment [7] is greater than 100 µM; in experiment [8] it was greater than 100 µM; in experiment [9], greater than 100 µM; in [10], 69.5 µM; in [11] it was 83.3 µM; in experiment [12], greater than 100 µM.
For the compound `COc1ccc2oc(=O)c(-c3csc(-c4ccccc4)n3)cc2c1`, the TGI was greater than 100 µM in [1]; greater than 100 µM in [2]; greater than 100 µM in [13]; greater than 100 µM in [4]; 34.3 µM in [5]; 59.3 µM in [6]. In addition, the TGI in experiment [7] is greater than 100 µM; in experiment [8] it was greater than 100 µM; in experiment [9] it was greater than 100 µM; in experiment [11], greater than 100 µM; in experiment [12] it was 53.6 µM.
`COc1ccc(-c2cc(=O)c3ccc(F)cc3[nH]2)cc1`: the TGI in [2], in experiment [13], in experiment [4], in experiment [5], in experiment [6] and in experiment [8] was greater than 100 µM throughout. Besides, the TGI in experiment [9], in [10], in [11] and in [12] was greater than 100 µM each time.
For the compound `Cc1ccc(/C=C2\CCCCCC2=O)cc1`, the TGI in experiment [1], in [2], in experiment [13], in experiment [4], in experiment [5] and in [7] was greater than 100 µM in each case. Further, the TGI in [8], in [9], in [10], in [11], in experiment [12] and in experiment [14] was greater than 100 µM throughout.
With `O=C(NN1C(=O)C(Cl)C1c1cccc(Cl)c1)c1ccccc1O` (stereo not drawn), the TGI in experiment [2], in [13], in [4], in experiment [6], in experiment [10] and in experiment [11] was greater than 100 µM throughout. Besides, the TGI in experiment [12] and in experiment [14] was greater than 100 µM in each case.
Consider `C/C(=C(/C)c1cc[n+](C)cc1)c1cc[n+](C)cc1`, for which the TGI in experiment [1], in experiment [2], in experiment [13], in experiment [4], in [5] and in experiment [6] was greater than 75 µM in each case. Besides, the TGI in [8], in experiment [10], in experiment [11], in experiment [12] and in experiment [14] was greater than 75 µM throughout.

(Values after PubChem BioAssay (NCI).)
